Reference: ChEMBL document CHEMBL1201862, “PubChem BioAssay data set” (2004)
Calls of active or inactive are those of the source.

Legend:
[1] = ZM109 Env clade C HIV-1 fusion inhibitors, dose response, HeLa effector, CEM target cells, luciferase, cherry-pick (AID 652058); type: functional, cell-based
[2] = inhibitors of clade B AD8 Env fusion, dose response, cell-based, cherry-pick (AID 652062); type: functional;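 also: luciferase signal from cell-cell fusion driven by HIV-1 clade B AD8 Env; potency is for inhibitors of fusion seen as a drop in luminescence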
[3] = inhibitors of HIV Env-driven cell fusion, dose response, cherry-pick (AID 652057); type: functional, cell-based
[4] = THP-1 cell cytotoxicity, dose response, cytotoxicity control for non-replicating M. tuberculosis project (AID 489025); type: functional
[5] = cells; type: functional
[6] = Luminescence Cell-Based Dose Retest to Confirm Inhibitors of Cancer Stem Cells. [Related pubchem assays (depositor defined):AID2717, AID2721]; type: functional; conditions: Homo sapiens
[7] = growth suppression of PTEN-null colon cells, dose response, cell-based, HCT116 PTEN knockout (AID 1047); type: functional;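 also: HCT116 colon tumor cells with PTEN knocked out; cells exposed to compound for 60 hours before readout; potency for loss of cell viability measured by luminescence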
[8] = growth suppression of beta-catenin-knockout colon cells, dose response, cell-based, HCT116, human colon tumor (AID 1045); type: functional;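 also: HCT116 colon tumor cells with beta catenin knocked out; cells exposed to compound for 60 hours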
[9] = biological target: T1, Sentrin-specific protease 7 (Homo sapiens, UniProt Q9BQF6); type: functional;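 also: Luminescence-based dose-response confirmation of ultra-high-throughput screening hits, measuring inhibition of SENP7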
T1 sequence (Q9BQF6 whole entry): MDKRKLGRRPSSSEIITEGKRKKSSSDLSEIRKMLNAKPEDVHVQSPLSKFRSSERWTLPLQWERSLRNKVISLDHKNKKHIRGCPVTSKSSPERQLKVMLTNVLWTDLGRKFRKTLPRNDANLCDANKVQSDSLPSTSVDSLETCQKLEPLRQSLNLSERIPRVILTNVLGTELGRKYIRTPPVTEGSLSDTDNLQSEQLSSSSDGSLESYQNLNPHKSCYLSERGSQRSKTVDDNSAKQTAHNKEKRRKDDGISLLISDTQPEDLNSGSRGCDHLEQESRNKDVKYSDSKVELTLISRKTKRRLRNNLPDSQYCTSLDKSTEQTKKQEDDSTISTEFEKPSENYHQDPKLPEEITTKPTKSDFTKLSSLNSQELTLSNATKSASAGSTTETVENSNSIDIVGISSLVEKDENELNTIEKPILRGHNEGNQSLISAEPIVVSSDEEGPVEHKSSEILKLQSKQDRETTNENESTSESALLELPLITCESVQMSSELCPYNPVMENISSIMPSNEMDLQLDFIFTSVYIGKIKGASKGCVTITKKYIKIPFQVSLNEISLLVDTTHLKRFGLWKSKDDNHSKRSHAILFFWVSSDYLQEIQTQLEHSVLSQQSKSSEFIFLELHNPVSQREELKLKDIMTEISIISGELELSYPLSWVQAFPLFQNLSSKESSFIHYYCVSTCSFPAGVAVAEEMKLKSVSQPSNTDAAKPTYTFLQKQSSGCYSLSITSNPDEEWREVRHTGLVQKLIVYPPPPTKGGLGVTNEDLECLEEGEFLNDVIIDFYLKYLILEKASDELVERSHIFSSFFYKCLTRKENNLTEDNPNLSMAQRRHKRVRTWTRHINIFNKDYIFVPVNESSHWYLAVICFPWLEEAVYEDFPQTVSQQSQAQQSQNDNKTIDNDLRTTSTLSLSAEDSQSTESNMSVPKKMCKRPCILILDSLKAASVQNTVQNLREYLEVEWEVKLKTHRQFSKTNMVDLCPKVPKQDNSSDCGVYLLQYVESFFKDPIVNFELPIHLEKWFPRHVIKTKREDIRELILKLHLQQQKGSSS

[10] = biological target: T2, Sentrin-specific protease 6 (Homo sapiens, UniProt Q9GZR1); type: functional;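 also: Luminescence-based dose-response confirmatory assay of SENP6 inhibition, following up an ultra-high-throughput screen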
T2 sequence (Q9GZR1 whole entry): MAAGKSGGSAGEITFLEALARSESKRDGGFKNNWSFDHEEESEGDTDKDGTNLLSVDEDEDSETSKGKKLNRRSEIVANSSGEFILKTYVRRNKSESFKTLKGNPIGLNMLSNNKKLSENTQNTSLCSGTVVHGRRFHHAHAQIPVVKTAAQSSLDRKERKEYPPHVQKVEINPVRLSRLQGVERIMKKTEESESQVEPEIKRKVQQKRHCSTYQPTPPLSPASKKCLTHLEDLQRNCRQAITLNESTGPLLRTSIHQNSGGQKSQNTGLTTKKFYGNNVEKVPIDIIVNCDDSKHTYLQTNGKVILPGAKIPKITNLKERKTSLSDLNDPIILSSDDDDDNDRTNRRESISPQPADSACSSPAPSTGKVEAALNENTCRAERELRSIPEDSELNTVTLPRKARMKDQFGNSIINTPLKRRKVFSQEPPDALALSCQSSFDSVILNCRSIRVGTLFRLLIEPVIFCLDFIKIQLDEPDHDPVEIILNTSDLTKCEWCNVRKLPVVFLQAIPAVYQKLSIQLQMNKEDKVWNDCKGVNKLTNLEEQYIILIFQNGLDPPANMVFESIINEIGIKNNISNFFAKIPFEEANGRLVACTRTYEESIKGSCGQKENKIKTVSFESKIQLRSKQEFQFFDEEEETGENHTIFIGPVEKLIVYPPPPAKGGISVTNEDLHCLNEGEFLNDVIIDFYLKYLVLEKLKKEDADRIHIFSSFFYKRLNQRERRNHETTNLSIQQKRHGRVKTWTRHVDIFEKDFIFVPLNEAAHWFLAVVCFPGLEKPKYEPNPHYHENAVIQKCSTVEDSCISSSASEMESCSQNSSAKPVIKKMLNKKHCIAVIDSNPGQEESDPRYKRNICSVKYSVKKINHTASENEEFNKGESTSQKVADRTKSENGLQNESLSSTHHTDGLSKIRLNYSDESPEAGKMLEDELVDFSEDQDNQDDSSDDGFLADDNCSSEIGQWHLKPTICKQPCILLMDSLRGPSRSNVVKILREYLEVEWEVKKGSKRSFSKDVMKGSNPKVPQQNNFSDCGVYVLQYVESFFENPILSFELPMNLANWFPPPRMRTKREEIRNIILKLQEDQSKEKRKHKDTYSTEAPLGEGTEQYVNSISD

[11] = biological target: T3, Caspase-3 (Homo sapiens, UniProt P42574); type: functional;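 also: Dose-response selectivity test against caspase-3 for candidate inhibitors of sentrin-specific proteases (SENPs)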
T3 sequence (P42574 whole entry): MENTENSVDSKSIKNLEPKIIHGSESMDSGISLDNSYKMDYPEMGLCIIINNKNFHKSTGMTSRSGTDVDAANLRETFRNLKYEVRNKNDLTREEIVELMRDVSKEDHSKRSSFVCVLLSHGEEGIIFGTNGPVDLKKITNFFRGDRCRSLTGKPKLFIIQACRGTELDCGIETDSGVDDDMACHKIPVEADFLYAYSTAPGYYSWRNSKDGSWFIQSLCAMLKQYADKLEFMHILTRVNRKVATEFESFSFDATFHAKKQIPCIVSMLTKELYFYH

[12] = biological target: T4, Sentrin-specific protease 8 (Homo sapiens, UniProt Q96LD8); type: functional;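 also: luminescence read-out of SENP8 inhibition, dose-response confirmation following an ultra-high-throughput screen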
T4 sequence (Q96LD8 whole entry): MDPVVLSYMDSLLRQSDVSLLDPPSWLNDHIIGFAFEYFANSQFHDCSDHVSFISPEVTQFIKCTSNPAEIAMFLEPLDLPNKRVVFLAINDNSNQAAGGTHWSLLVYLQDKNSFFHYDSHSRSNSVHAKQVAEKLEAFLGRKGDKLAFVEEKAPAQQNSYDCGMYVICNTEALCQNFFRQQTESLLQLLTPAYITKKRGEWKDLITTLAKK

[13] = Luminescence Cell-Based Dose Response HTS to Identify Activators of Luciferase Translation or Activity in H4 […] Cells. [Related pubchem assays: 1829 (Project Summary), 1814 (Primary HTS)]; type: functional
[14] = Luminescence Cell-Based Dose Confirmation HTS to Identify Activators of 5'UTR Stem-Loop Driven Alpha-Synuclein mRNA Translation in H4 Neuroglioblastoma Cells. [Related pubchem assays: 1829 (Project Summary), 1814 (Primary HTS)]; type: functional
[15] = biological target: Nonstructural protein 1 (Influenza A virus, UniProt Q194T2); type: functional, Influenza A virus (A/California/07/2009(H1N1))
[16] = system: H4; assay: Luminescence Cell-Based Dose Response HTS to Identify Activators of 5'UTR Stem-Loop Driven Prion Protein mRNA Translation in H4 Neuroglioblastoma Cells. [Related pubchem assays: 1829 (Project Summary), 1814 (Primary HTS)]; type: functional; conditions: Homo sapiens
[17] = intracellular Trypanosoma cruzi inhibitors in host cells – cell-based, plate reader, cherry-pick samples, set 3, dose response (AID 651818); type: functional;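 also: compounds incubated with infected cells for about four days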
[18] = biological target: T5, Rac GTPase-activating protein 1 (Homo sapiens, UniProt Q9H0H5); assay: MgcRacGAP GTPase-activating activity inhibitors, confirmation, biochemical, ADP Hunter fluorescence, primary and confirmatory (AID 624330); type: functional
T5 sequence (Q9H0H5 whole entry): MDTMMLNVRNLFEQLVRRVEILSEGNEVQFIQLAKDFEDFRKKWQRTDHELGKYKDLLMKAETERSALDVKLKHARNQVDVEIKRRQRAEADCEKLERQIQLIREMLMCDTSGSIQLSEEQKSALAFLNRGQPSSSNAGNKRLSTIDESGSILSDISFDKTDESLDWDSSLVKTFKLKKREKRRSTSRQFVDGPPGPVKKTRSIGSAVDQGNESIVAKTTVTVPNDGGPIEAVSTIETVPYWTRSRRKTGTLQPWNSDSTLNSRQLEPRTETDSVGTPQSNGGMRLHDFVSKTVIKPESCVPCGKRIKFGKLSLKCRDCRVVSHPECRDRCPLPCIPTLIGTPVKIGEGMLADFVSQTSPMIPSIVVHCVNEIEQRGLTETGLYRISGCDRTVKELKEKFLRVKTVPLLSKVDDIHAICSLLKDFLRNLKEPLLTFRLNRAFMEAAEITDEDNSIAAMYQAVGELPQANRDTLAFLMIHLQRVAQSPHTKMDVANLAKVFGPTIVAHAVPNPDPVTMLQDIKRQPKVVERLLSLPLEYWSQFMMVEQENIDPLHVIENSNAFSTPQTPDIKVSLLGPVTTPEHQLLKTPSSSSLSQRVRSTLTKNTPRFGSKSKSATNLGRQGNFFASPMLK

[19] = system: HEK293; assay: cells; type: functional, cell-based; conditions: Homo sapiens
[20] = system: HEK293; assay: cells; type: functional, cell-based; conditions: Homo sapiens; remark: listed apart in the source
[21] = system: HEK293; assay: NOD2 signaling inhibitors in MDP-stimulated cells, cell-based, uHTS, luminescence (AID 2001); type: functional; conditions: Homo sapiens
[22] = system: HEK293; assay: NOD1 signaling inhibitors, primary screen, cell-based, luminescence, uHTS (AID 1578); type: functional; conditions: Homo sapiens

Chain of Nonstructural protein 1 (Q194T2 whole entry): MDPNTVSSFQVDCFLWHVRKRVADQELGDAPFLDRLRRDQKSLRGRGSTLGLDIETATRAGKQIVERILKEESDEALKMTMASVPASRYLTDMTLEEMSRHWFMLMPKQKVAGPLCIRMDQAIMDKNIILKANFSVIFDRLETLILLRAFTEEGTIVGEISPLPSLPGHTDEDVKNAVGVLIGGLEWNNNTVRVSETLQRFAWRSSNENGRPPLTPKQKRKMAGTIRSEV

Compound	IC50 [9]	IC50 [10]	IC50 [11]	IC50 [12]	AC50 [17]	further results
O=C(NNS(=O)(=O)c1ccc(F)cc1F)C1Cc2c(ccc3ccccc23)O1 (configuration not stated)	–	–	–	–	–	AC50 [1]: 37.5 µM (active); AC50 [2]: 24.2 µM (active); AC50 [3]: 8.04 µM (active)
CCOC(=O)c1c(NC(=O)C2COc3ccccc3O2)sc2c1CC(C)(C)NC2(C)C (configuration not stated)	–	–	–	–	–	CC50 [4]: 25.3 µM (active); IC50 [5]: 36.2 µM (active); AC50 [6]: 8.55 µM (active); EC50 [7]: 10.6 µM (active); EC50 [8]: 10.3 µM (active)
CCc1ccc(-c2csc(NC(=O)C3=COCCO3)n2)cc1	6.81 µM (active)	27 µM (active)	38.6 µM (active)	48.5 µM (active)	–	–
O=C(Nc1ccccc1Cl)Nc1cccc2cccnc12	7.41 µM (active)	> 100 µM (inactive)	29.4 µM (active)	6.08 µM (active)	–	–
O=[N+]([O-])c1nn(-c2ccc3c(c2)OCCO3)[n+]([O-])c1NCc1ccccc1Cl	3.36 µM (active)	> 100 µM (inactive)	> 100 µM (inactive)	> 100 µM (inactive)	–	–
Clc1ccc(OCc2nc(-c3ccncc3)no2)c(Cl)c1	9.12 µM (active)	28.8 µM (active)	38.8 µM (active)	36.6 µM (active)	–	–
S=C(NNc1ccc2ccccc2c1)NC1CCCCC1	–	–	–	–	–	EC50 [13]: 30.4 µM (active); EC50 [14]: 42.1 µM (active); IC50 [15]: > 100 µM (active); EC50 [16]: 9.85 µM (active)
Cc1cccc(C(=O)n2c(=S)nc3cc(C)ccn32)c1	11 µM (active)	86.4 µM (active)	87.3 µM (active)	> 100 µM (inactive)	–	–
C[C@@H]1CN([C@@H](C)CO)C(=O)c2cccc(NC(=O)c3nc4ccccc4s3)c2O[C@H]1CN(C)Cc1ccc2c(c1)OCO2	–	–	–	–	1.78 µM (active)	–
COc1ccc(NC(=O)Nc2ccc3c(c2)C(=O)N([C@H](C)CO)C[C@H](C)[C@@H](CN(C)CC2CCCCC2)OCCCC[C@@H](C)O3)cc1	–	–	–	–	3.41 µM (active)	–
C[C@@H]1CN([C@H](C)CO)C(=O)Cc2cc(NS(=O)(=O)c3ccccc3)ccc2O[C@@H]1CN(C)Cc1ccc(Cl)c(Cl)c1	–	–	–	–	3.52 µM (active)	–
C[C@H](CO)N1C[C@H](C)[C@H](CN(C)Cc2ccc(Cl)c(Cl)c2)Oc2c(NC(=O)c3ccc(-c4nccs4)cc3)cccc2C1=O	–	–	–	–	4.5 µM (active)	–
C[C@H]1CN([C@@H](C)CO)C(=O)c2cccc(NC(=O)c3ccc(-c4nccs4)cc3)c2O[C@H]1CN(C)Cc1ccc(C(=O)Nc2ccccc2N)cc1	–	–	–	–	1.49 µM (active)	–
CN(c1ccccc1)c1ccc(/C=N/N2CCOCC2)cc1	8.89 µM (active)	27.3 µM (active)	18.8 µM (active)	39.5 µM (active)	–	IC50 [18]: 37.2 µM (active); IC50 [15]: > 100 µM (active)
COc1ccc(-c2nc3ccccc3c(=O)[nH]2)cc1	6.89 µM (active)	17.3 µM (active)	6.83 µM (active)	> 100 µM (inactive)	–	–
CC1(C)C=C2[C@H]3CC[C@@H]4[C@@]5(C)CCC(=O)C(C)(C)[C@@H]5CC[C@@]4(C)[C@]3(C)CC[C@@]2(C(=O)O)CC1 [MORONIC ACID]	–	–	–	–	–	IC50 [19]: 15.7 µM (active); AC50 [6]: 3.35 µM (active); IC50 [20]: 10.9 µM (active); IC50 [21]: 8.08 µM (active); EC50 [22]: 2.27 µM (active)
